Read-outs that look alike come from different tables or passages of the source.
Tests used:
[1] = tested on: MCF-7 cells; assay: MCF-7 cell proliferation inhibition assay; type: cell-based; conditions: Homo sapiens, MCF7, 144 h; MCF-7 cells, 6 days incubation, CellTiter-Glo; read-out: anti-proliferation in MCF-7 cells
Procedure: Experimental Reagent: RPMI 1640 medium, fetal bovine serum, Promega CellTiter-Glo reagent. The cell line MCF-7 was purchased from The European Collection of Authenticated Cell Cultures (ECACC). Envision Multilabel Reader (PerkinElmer). Experimental Method: […] The cell plate was placed in a carbon dioxide incubator overnight. […] The cell plate was incubated in a carbon dioxide incubator for 6 days. Promega CellTiter-Glo reagent was added to the cell plate at 25 μL per well, cells were incubated for 10 minutes at room temperature to stabilize the luminescence signal, which was measured using PerkinElmer Envision Multilabel Reader. Data Analysis: […] (Model 205 in XLFIT5, iDBS)

[2] = plasma protein binding rate (Human); type: in vitro ADME
[3] = plasma protein binding rate (CD-1 mouse); type: in vitro ADME
[4] = target: T1, CYP 1A2 (Homo sapiens, UniProt P05177); assay: inhibition of CYP enzymes 1A2; type: in vitro ADME
T1 sequence (P05177 1-516): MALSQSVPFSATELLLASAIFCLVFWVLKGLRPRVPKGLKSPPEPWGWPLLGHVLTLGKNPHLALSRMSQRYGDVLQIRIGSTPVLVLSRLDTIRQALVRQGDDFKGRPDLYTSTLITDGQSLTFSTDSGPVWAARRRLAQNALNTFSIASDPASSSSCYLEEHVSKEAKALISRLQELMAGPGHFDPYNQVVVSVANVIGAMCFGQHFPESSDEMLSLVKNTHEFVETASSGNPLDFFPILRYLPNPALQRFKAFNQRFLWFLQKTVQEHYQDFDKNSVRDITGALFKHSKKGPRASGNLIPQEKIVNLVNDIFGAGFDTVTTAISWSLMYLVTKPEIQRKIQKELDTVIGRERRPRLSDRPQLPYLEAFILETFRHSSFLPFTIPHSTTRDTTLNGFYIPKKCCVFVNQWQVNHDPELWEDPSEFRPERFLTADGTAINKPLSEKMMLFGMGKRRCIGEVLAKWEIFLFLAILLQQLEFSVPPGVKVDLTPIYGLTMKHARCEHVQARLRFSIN

[5] = target: CYP 2C9 (Homo sapiens, UniProt P11712); assay: inhibition of CYP enzymes 2C9; type: in vitro ADME
[6] = target: CYP 2C19 (Homo sapiens, UniProt P33261); assay: inhibition of CYP enzymes 2C19; type: in vitro ADME
[7] = target: CYP 2D6 (Homo sapiens, UniProt P10635); assay: inhibition of CYP enzymes 2D6; type: in vitro ADME
[8] = target: CYP 3A4 (Homo sapiens, UniProt P08684); assay: inhibition of CYP enzymes 3A4; type: in vitro ADME
[9] = in vivo PK properties (cassette PK); conditions: plasma; for AUC(0-t): read-out: AUC0-last (nm/hr)
[10] = tested on: MCF-7 breast cancer cell xenograft; assay: antitumor activity on MCF-7 breast cancer cell xenograft model; type: in vivo, BALB/c nude mice
Procedure: Mice were inoculated subcutaneously with 0.36 mg estrogen sustained release tablet (60 days release) on the left shoulder three days before inoculation. When cells were in the logarithmic growth phase, cells were harvested, counted and adjusted to 10×10^7 cells/mL, then an equal volume of Matrigel was added, mixing for inoculation. 0.2 mL MCF-7 tumor cell suspension (10×10^6) was inoculated subcutaneously into the right shoulder of each mouse. On the 7th day after tumor cell inoculation, mice were grouped and administrated once a day, with an average tumor volume of 169 mm^3 and a body weight of 23.33 g. Tumor volume and body weight were measured twice a week after grouping, and the tumor growth rate (T/C) and tumor growth inhibition rate (TGI) were calculated based on the last measuring data on the 17th day after grouping.

[11] = drug distribution in tissues (plasma, tumor, brain); type: in vivo, mice
Procedure: On the 20th day after grouping, the sample was collected from plasma, tumor, breast and brain of the mice at four time points (2-3 mice each time point) which was respectively 0.5 hour, 1.5 hours, 6 hours and 24 hours after administration. The blood (0.5 mL) was collected using a 1.5 mL EDTA-K2 anticoagulation tube, immediately centrifuged at 4000 rpm, 4° C. for 10 minutes to prepare plasma, the plasma sample was stored at −80° C. for determination of drug concentration. The tumor was collected using a 2 mL cryotube, and the brain was collected using a 5 mL cryotube, the samples were immediately put into liquid nitrogen for quike freeze. All samples were stored at −80° C. for determination of drug concentration after sampling. The result was converted based on corresponding AUC to compare the drug distribution.

[12] = oral, once a day, ARN-810 10/30 mg/kg, I-1 30 mg/kg, 17th day after grouping

Sequence of CYP 2C19 (P33261 whole entry): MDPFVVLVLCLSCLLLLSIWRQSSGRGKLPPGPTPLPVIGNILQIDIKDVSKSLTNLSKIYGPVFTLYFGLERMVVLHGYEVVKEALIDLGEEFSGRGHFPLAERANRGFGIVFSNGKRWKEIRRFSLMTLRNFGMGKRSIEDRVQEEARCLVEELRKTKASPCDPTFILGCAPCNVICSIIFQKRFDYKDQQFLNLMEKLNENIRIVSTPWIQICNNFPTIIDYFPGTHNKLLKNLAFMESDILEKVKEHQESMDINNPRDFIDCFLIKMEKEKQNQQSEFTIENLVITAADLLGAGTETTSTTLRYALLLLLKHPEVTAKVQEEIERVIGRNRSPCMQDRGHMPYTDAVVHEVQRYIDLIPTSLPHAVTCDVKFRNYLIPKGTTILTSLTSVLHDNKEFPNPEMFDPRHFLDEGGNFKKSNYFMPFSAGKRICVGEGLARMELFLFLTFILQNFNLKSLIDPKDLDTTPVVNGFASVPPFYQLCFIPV
Sequence of CYP 3A4 (P08684 whole entry): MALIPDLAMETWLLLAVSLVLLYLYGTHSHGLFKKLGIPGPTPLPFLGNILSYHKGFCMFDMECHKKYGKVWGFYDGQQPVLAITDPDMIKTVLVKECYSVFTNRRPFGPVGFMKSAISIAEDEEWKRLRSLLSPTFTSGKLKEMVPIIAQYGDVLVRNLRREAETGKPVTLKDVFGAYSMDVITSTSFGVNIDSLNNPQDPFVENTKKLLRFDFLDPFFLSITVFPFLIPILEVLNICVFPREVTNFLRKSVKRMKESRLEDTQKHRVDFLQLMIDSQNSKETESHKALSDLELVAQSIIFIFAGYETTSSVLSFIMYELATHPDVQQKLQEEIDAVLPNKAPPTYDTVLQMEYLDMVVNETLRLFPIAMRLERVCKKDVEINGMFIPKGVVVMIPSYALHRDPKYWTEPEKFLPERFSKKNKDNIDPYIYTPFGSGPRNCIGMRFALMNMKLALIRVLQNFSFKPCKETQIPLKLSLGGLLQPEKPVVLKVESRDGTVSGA
Sequence of CYP 2D6 (P10635 whole entry): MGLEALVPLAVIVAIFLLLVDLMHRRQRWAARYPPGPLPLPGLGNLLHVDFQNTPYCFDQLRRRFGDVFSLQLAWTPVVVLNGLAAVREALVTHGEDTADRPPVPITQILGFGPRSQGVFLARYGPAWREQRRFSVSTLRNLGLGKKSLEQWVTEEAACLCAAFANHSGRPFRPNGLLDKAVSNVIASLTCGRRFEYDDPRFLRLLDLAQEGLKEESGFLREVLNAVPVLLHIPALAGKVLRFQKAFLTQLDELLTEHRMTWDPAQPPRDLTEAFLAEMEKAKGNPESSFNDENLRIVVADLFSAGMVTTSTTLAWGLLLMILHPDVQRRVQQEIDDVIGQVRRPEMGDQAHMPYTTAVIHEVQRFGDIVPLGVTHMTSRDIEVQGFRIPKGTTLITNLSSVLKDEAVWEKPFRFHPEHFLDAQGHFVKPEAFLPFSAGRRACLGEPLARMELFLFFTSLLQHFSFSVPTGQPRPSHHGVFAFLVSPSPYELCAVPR
Sequence of CYP 2C9 (P11712 whole entry): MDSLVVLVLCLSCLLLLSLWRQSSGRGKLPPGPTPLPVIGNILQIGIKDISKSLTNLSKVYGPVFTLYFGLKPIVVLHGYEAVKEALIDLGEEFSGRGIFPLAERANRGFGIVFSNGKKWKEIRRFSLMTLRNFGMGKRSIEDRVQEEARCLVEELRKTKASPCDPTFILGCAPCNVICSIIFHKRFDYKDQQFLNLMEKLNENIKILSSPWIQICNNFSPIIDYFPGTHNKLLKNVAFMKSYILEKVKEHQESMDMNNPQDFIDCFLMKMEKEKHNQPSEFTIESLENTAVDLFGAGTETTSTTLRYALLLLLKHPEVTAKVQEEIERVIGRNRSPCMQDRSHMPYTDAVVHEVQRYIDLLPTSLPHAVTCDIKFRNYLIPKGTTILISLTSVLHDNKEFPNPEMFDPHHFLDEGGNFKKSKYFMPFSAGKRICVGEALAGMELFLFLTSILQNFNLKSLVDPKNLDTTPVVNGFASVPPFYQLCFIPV

- IC50 [1]: 0.0385 µM
- fraction unbound [2]: 0.028
- fraction unbound [3]: 0.012
- IC50 [4]: 25.5 µM
- IC50 [5]: 10.1 µM
- IC50 [6]: 40.4 µM
- IC50 [7]: 43.4 µM
- IC50 [8]: 25.1 µM
- C0 ([9]; iv, 1 mg/kg, i.V. 1 mpk): 3.48 µM
- clearance ([9]; iv, 1 mg/kg, i.V. 1 mpk): 0.217 L/h/kg
- half-life ([9]; iv, 1 mg/kg, i.V. 1 mpk): 2.81 h
- AUC(0-t) ([9]; iv, 1 mg/kg, i.V. 1 mpk): 10.4 µM·h
- Vd ([9]; iv, 1 mg/kg, i.V. 1 mpk, read-out: Vdss): 0.992 L/kg
- Cmax ([9]; po, 2.5 mg/kg, P.O 2.5 mpk): 2.15 µM
- Tmax ([9]; po, 2.5 mg/kg, P.O 2.5 mpk): 3.33 h
- bioavailability ([9]; po, 2.5 mg/kg, P.O 2.5 mpk): 70.6%
- half-life ([9]; po, 2.5 mg/kg, P.O 2.5 mpk): 3.18 h
- AUC(0-t) ([9]; po, 2.5 mg/kg, P.O 2.5 mpk): 18.3 µM·h
- distribution in brain tissue compared with ARN-810 ([11]; brain tissue): much better
- AUC0-last (nmol · h/kg) brain ([11]; brain, dose 67.3 μmol/kg, 20th day after grouping): 43167 nmol·h/kg
- AUC0-last (nmol · h/kg) plasma ([11]; plasma, dose 67.3 μmol/kg, 20th day after grouping): 118937 nmol·h/kg
- distribution in tumor tissue compared with ARN-810 ([11]; tumor tissue): much better
- AUC0-last (nmol · h/kg) tumor ([11]; tumor, dose 67.3 μmol/kg, 20th day after grouping): 55487 nmol·h/kg
Compound: CC/C(=C(/c1ccc(/C=C/C(=O)O)cc1)c1cc2ccccc2[nH]1)c1ccc(F)cc1Cl [Compound I-1]
- antitumor activity compared with ARN-810 ([10]; oral I-1 30 mg/kg versus oral ARN-810 10/30 mg/kg): superior
- T/C (%) [10, 12]: 30.1%
- TGI (%) [10, 12]: 93.6%
- tumor volumn (mm^3) 17th day after grouping ([10]; oral, once a day, ARN-810 10/30 mg/kg, I-1 30 mg/kg, Mean ± SEM): 201 ± 27 mm^3

Source: patent publication US10519143B2, “Substituted-indole-compounds as estrogen receptor down-regulators” (LUOXIN PHARMACEUTICAL (SHANGHAI) CO., LTD, priority 2016, dated 2019)
